Measurements as given in ChEMBL document CHEMBL5038574, “Selaginellin Derivatives from Selaginella tamariscina and Their Upregulating Effects on Low-Density Lipoprotein Receptor Expression” (J Nat Prod, 2021).
Active and inactive are the calls of the source. The calls are words filed in the database; no cut-off is given here.

How the values were obtained:
Type in all cases: functional, cell-based
HepG2 [1] = test: Up regulation of LDLR mRNA expression in human HepG2 cells at 50 uM for 24 hrs by qPCR analysis
HepG2 [2] = test: Up regulation of protein expression in human HepG2 cells at 10 to 50 uM for 24 hrs by western blot analysis; settings: dose 10-50 µM
HepG2 [3] = test: Up regulation of SREBP mRNA expression in human HepG2 cells at 50 uM for 24 hrs by qPCR analysis
HepG2 [4] = test: Up regulation of APOC2 mRNA expression in human HepG2 cells at 50 uM for 24 hrs by qPCR analysis
HepG2 [5] = test: Up regulation of APOE mRNA expression in human HepG2 cells at 50 uM for 24 hrs by qPCR analysis

Structure (SMILES) | Activity (HepG2 [1]) | also measured
COCc1ccc2c(c1CC(=O)c1ccc(O)cc1)C(c1ccc(OC)cc1)(c1ccc(OC)cc1)c1cc(O)ccc1-2 | Active | Activity (HepG2 [2]): Active; Activity (HepG2 [3]): Active; Activity (HepG2 [4]): Active; Activity (HepG2 [5]): Active
COc1ccc(C(=C2C=CC(=O)C=C2)c2c(-c3ccc(O)cc3)ccc(COc3ccc(C(=C4C=CC(=O)C=C4)c4c(-c5ccc(O)cc5)ccc(CO)c4C#Cc4ccc(O)cc4)cc3)c2C#Cc2ccc(O)cc2)cc1 | inactive | –
O=C1C=CC(=C(c2ccc(O)cc2)c2c(-c3ccc(O)cc3)ccc(COc3ccc([C@@]4(c5ccc(O)cc5)c5cc(O)ccc5-c5ccc(CO)c(C#Cc6ccc(O)cc6)c54)cc3)c2C#Cc2ccc(O)cc2)C=C1 | inactive | –
O=C1C=CC(=C(c2ccc(OCc3ccc(-c4ccc(O)cc4)c(C(=C4C=CC(=O)C=C4)c4ccc(O)cc4)c3C#Cc3ccc(O)cc3)cc2)c2c(-c3ccc(O)cc3)ccc(CO)c2C#Cc2ccc(O)cc2)C=C1 | inactive | –
O=C1C=CC(=C(c2ccc(O)cc2)c2c(-c3ccc(O)cc3)ccc(COCc3ccc(-c4ccc(O)cc4)c(C(=C4C=CC(=O)C=C4)c4ccc(O)cc4)c3C#Cc3ccc(O)cc3)c2C#Cc2ccc(O)cc2)C=C1 | inactive | –
O=C1C=CC(=C(c2ccc(O)cc2)c2c(-c3ccc(O)cc3)ccc(CO)c2C#Cc2ccc(O)cc2)C=C1 | inactive | –
